Ends that are not written are not given here.
Key:
panel of bacteria = experiment: Broth microdilution antimicrobial assay; format: cell-based; conditions: all organisms tested, 100 µM to 49 nM compound, 37 °C, no visible growth after 18 h (24 h M. smegmatis), at least 2 replicates
[1] = tested on: Mycobacterium smegmatis NRRL B-14616; experiment: Broth microdilution antimicrobial assay; format: cell-based; conditions: Mueller-Hinton broth, 100 µM to 49 nM, 37 °C, 24 h, at least 2 replicates
[2] = tested on: Bacillus anthracis Sterne; format: cell-based
[3] = tested on: Enterococcus faecium U503 (VRE); experiment: Broth microdilution antimicrobial assay; format: cell-based; conditions: Mueller-Hinton broth, 100 µM to 49 nM, 37 °C, 18 h, at least 2 replicates
Bacillus subtilis 168 = experiment: Broth microdilution antimicrobial assay; format: cell-based; conditions: Mueller-Hinton broth, 100 µM to 49 nM, 37 °C, 18 h, at least 2 replicates
E. coli MC4100 = experiment: Broth microdilution antimicrobial assay; format: cell-based, Escherichia coli; conditions: Mueller-Hinton broth, 100 µM to 49 nM, 37 °C, 18 h, at least 2 replicates

Row | Sequence | growth-suppressive activity (panel of bacteria) | growth-suppressive activity (Bacillus subtilis 168) | growth-suppressive activity (E. coli MC4100) | other results
1 | LAGQGSPDLLGGHSLL (also: lariat or depsi (positions not given here)) [lagmysin] | lacked growth suppressive activity towards all organisms tested | – | – | –
2 | GRPNWGFENDWSCVRVC (also: bicyclic or more (positions not given here)) [LP2006] | – | active | – | growth-suppressive activity [1]: active; growth-suppressive activity [2]: active; growth-suppressive activity [3]: active
3 | LLGLAGNDRLVLSKN (also: lariat or depsi (positions not given here)) [Citrulassin A] | lacked growth suppressive activity towards all organisms tested | – | – | –
4 | GFIGWGNDIFGHYSGG (also: lariat or depsi (positions not given here)) [anantin B2] | – | moderately active | weak activity | –
5 | SYHWGDYHDWHHGWYGWWDD (also: lariat or depsi (positions not given here)) [moomysin] | lacked growth suppressive activity towards all organisms tested | – | – | –
6 | GFIGWGNDIFGHYSGGF (also: lariat or depsi (positions not given here)) [anantin B1] | – | – | weak activity | –

From article PMC5391289 (Nature chemical biology, 2017)
